Laboratory results published in PubChem BioAssay AID602355 (The Scripps Research Institute Molecular Screening Center, 2012).
The source made the active and inactive calls. No rule for the calls is given here.

Columns and labels:
Assay in all cases: serine hydrolase panel inhibition in mouse proteome, late-stage follow-up, selectivity assay for DAGLb inhibitor project, gel-based competitive ABPP, fluorescence (AID 602355)
[1] = target: Acyl-protein thioesterase 1 (Mus musculus) (UniProt P97823); conditions: FP-rhodamine fluorescence, LYPLA1, at 10 µM (top of the series)
[2] = target: Monoacylglycerol lipase ABHD6 (Mus musculus) (UniProt Q8R2Y0); conditions: FP-rhodamine fluorescence, at 10 µM (top of the series)
[3] = test system: FAAH; conditions: FP-rhodamine fluorescence, at 10 µM (top of the series)
[4] = test system: PNPLA6; conditions: FP-rhodamine fluorescence, at 10 µM (top of the series)
[5] = test system: ABHD11; conditions: FP-rhodamine fluorescence, at 10 µM (top of the series)
[6] = test system: ABHD12; conditions: FP-rhodamine fluorescence, at 10 µM (top of the series)
[7] = target: Diacylglycerol lipase-beta (Mus musculus) (UniProt Q91WC9); conditions: FP-rhodamine fluorescence, DAGLb, at 10 µM (top of the series)
[8] = test system: MAGL; conditions: FP-rhodamine fluorescence, at 10 µM (top of the series)
[9] = test system: LYPLA2; conditions: FP-rhodamine fluorescence, at 10 µM (top of the series)
[10] = target: Platelet-activating factor acetylhydrolase 2, cytoplasmic (Mus musculus) (UniProt Q8VDG7); conditions: FP-rhodamine fluorescence, PAFAH2, at 10 µM (top of the series)
[11] = target: Platelet-activating factor acetylhydrolase (Mus musculus) (UniProt Q60963); conditions: FP-rhodamine fluorescence, PLA2G7, at 10 µM (top of the series)
Platelet-activating factor acetylhydrolase (Mus musculus), sequence (Q60963 whole entry, looked up): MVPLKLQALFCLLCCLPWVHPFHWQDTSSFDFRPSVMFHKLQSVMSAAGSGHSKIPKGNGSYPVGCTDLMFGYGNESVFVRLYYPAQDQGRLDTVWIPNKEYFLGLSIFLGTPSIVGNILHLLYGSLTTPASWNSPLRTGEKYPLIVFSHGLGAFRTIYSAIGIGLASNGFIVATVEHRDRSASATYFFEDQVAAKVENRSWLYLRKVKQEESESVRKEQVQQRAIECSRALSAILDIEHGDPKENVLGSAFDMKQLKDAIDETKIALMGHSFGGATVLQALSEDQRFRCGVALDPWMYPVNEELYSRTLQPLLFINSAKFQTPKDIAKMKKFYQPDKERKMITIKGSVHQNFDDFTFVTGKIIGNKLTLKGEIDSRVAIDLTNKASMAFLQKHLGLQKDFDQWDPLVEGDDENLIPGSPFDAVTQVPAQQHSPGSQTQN

Monoacylglycerol lipase ABHD6 (Mus musculus), sequence (Q8R2Y0 whole entry, looked up): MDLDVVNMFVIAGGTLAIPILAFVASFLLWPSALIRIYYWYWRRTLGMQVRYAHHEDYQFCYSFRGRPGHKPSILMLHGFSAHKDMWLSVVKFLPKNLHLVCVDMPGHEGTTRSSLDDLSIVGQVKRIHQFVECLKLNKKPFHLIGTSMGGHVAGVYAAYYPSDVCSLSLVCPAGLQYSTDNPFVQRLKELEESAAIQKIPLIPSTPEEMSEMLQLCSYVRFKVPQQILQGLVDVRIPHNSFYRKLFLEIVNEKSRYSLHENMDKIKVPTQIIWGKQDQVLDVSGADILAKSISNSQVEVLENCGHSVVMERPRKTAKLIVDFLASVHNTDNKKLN
Acyl-protein thioesterase 1 (Mus musculus), sequence (P97823 whole entry, looked up): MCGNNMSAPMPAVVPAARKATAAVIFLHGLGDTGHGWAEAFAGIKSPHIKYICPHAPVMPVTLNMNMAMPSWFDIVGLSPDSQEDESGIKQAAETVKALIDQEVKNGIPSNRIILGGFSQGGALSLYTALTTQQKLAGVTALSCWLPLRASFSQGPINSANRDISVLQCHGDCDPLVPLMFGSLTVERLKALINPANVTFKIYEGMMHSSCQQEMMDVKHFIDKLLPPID
Platelet-activating factor acetylhydrolase 2, cytoplasmic (Mus musculus), sequence (Q8VDG7 whole entry, looked up): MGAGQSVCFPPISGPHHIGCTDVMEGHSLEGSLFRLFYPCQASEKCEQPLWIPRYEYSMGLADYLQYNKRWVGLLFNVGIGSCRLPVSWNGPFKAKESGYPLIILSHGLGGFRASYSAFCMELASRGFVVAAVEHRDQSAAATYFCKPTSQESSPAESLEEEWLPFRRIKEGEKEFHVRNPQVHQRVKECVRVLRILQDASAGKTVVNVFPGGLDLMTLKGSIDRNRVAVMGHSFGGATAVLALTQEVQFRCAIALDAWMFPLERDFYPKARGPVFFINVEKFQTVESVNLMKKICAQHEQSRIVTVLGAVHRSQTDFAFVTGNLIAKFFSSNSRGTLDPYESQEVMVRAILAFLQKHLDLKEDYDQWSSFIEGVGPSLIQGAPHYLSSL
Diacylglycerol lipase-beta (Mus musculus), sequence (Q91WC9 whole entry, looked up): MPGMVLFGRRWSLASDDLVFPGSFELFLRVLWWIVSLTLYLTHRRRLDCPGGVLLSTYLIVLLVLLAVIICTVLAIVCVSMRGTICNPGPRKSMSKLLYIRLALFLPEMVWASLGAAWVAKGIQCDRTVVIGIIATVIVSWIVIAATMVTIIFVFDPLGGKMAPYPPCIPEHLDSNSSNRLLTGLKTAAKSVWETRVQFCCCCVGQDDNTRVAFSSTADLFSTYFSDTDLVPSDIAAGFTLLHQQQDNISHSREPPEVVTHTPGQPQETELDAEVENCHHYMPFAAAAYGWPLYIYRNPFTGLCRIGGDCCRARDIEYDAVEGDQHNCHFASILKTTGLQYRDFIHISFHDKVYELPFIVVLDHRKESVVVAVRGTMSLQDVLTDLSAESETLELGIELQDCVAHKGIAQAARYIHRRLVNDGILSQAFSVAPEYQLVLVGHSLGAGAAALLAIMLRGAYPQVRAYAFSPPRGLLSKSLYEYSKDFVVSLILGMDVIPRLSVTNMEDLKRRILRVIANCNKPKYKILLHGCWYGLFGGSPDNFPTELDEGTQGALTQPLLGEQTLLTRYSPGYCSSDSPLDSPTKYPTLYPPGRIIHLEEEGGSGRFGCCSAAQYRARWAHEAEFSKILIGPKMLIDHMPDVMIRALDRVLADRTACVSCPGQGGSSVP

Row | SMILES | inhibition [1] | inhibition [2] [%] | inhibition [3] | inhibition [4] | inhibition [5] | inhibition [6] | inhibition [7] | inhibition [8] | inhibition [9] | inhibition [10] | inhibition [11] [%]
1 | COc1ccc(-c2ccc(-c3cn(C(=O)N4CCCCC4c4ccccc4)nn3)cc2)cc1 (stereo not drawn) | 15% (inactive) | 100 | 70% | 55% (inactive) | 0% (inactive) | 0% (inactive) | 20% (inactive) | 0% (inactive) | 15% (inactive) | – | –
2 | COc1ccccc1-c1ccc(-c2cn(C(=O)N3CCCCC3Cc3ccccc3)nn2)cc1 (stereo not drawn) | 0% (inactive) | 100 | 0% (inactive) | – | 0% (inactive) | 0% (inactive) | 95% | 100% | 0% (inactive) | 15% (inactive) | 85
3 | O=C(N1CCCCC1Cc1ccccc1)n1cc(-c2ccc(-c3ccccc3)cc2)nn1 (stereo not drawn) | 0% (inactive) | 100 | 25% (inactive) | – | 0% (inactive) | 20% (inactive) | – | 0% (inactive) | 0% (inactive) | 80% (inactive) | 100
